From paper PMC6545111 (Journal of medicinal chemistry, 2018)
Values joined by “and” are separate entries in the source; they are usually repeats but may differ in a detail not shown here. Equal entries are not always repeated. Where two headings read alike, the source gives them in different places.

Tests used:
[1] = system: MV4;11, MOLM-13 and RS4;11 acute leukemia cell lines; assay: Cell growth inhibition, statements covering the three leukemia cell lines; format: cell-based, human
[2] = system: BRD2, BRD3 and BRD4 proteins in MV4;11 cells; assay: Western blotting of BET proteins in MV4; format: cell-based; details: 3 h treatment
[3] = system: c-Myc protein in RS4;11 cells; assay: Western blotting of c-Myc in RS4; format: cell-based, human; details: RS4;11 cell line
[4] = system: c-Myc protein in MV4;11 cells; assay: Western blotting of c-Myc in MV4; format: cell-based, human; details: MV4;11 cell line
[5] = system: cleaved PARP and cleaved Caspase 3 in RS4;11 cells; assay: Western blotting of cleaved PARP / caspase 3 in RS4; format: cell-based, human; details: RS4;11 cell line, 24 h treatment
[6] = system: cleaved PARP and cleaved Caspase 3 in MV4;11 cells; assay: Western blotting of cleaved PARP / caspase 3 in MV4; format: cell-based, human; details: MV4;11 cell line
[7] = molecular target: GSPT1 protein (Homo sapiens, UniProt P15170); assay: Western blotting of GSPT1 in MV4; format: cell-based; details: MV4;11 and RS4;11 cells
GSPT1 protein, sequence (P15170 whole entry): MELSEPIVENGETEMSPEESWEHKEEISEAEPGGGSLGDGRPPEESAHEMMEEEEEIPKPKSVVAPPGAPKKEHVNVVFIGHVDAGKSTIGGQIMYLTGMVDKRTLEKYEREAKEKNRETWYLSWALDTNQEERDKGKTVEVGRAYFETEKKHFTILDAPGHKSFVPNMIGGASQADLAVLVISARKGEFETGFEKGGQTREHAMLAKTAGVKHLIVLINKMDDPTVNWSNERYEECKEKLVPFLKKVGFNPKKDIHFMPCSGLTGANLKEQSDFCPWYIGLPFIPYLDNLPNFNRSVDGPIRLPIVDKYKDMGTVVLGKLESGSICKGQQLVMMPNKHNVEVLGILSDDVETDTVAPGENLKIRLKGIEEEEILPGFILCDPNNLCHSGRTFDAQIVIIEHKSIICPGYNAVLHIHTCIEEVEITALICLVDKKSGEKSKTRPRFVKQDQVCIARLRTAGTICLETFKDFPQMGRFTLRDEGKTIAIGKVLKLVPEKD

[8] = system: MOLM-13 cells; assay: Apoptosis by flow cytometry; format: cell-based, human; details: MOLM-13, as low as 1 nM, 24 h treatment
[9] = system: MV4;11 cells; assay: Apoptosis by flow cytometry; format: cell-based, human; details: MV4;11, as low as 1 nM, 24 h treatment
[10] = system: RS4;11 cells; assay: Apoptosis by flow cytometry; format: cell-based, human
[11] = system: BRD2, BRD3, BRD4, c-Myc and cleaved PARP in RS4;11 xenograft tumors; assay: Pharmacodynamic analysis in RS4; format: in vivo, SCID mice
[12] = Tissue distribution in mice bearing RS4; format: in vivo, SCID mice; details: IV, 5mg/kg; for Concentration of QCA570 in Heart / Concentration of QCA570 in Intestine / Concentration of QCA570 in Kidney / Concentration of QCA570 in Liver / Concentration of QCA570 in Lung / Concentration of QCA570 in Tumor / Concentration of QCA570 in plasma: individual mice
[13] = system: RS4;11 xenograft tumors; assay: Anti-tumor efficacy, RS4; format: in vivo, SCID mice
[14] = system: BRD2, BRD3 and BRD4 proteins in RS4;11 cells; details: 3 h treatment
[15] = system: MV4;11 xenograft tumors; details: 3 times per week for 2 weeks, intravenous
[16] = RS4;11 xenograft, all treatment groups

In the case of “3-(4-(5-(4-((3-Benzyl-9-methyl-4H,6H-thieno[2,3-e][1,2,4]triazolo[3,4-c][1,4]oxazepin-2-yl)ethynyl)-1H-pyrazol-1-yl)pent-1-yn-1-yl)-1-oxoisoindolin-2-yl)piperidine-2,6-dione [Compound 35]”, the “times more potent than ZBC260 in cell growth inhibition” value ([1]; MV4;11 and MOLM-13 cell lines) is reported as > 10 times, the “times more potent than ARV-771 in cell growth inhibition” value ([1]; each of the three cell lines) is reported as > 10 times and the “times more potent than ARV-825 in cell growth inhibition” value ([1]; each of the three cell lines) is reported as > 10 times. The “times more potent than dBET1 in cell growth inhibition” value ([1]; each of the three cell lines) was > 1,000 times, the “concentration effective in reducing BRD2 protein level” value [2] was 30 to 100 pM and the “lowest concentration very effective in reducing BRD3 and BRD4 protein levels” value [2] was ≤ 10 pM. For the same substance, the “lowest concentration very effective in reducing c-Myc protein levels” value [3] was ≤ 10 pM, the “lowest concentration very effective in reducing c-Myc protein levels” value [4] was ≤ 30 pM and the “caspase 3 cleavage” value [5] was “not detected”. The “lowest concentration inducing robust cleavage of PARP” value [5] was 0.1 to 0.3 nM, the “lowest concentration inducing caspase 3 activation” value [6] was ≤ 0.3 nM and the “lowest concentration inducing robust cleavage of PARP” value ([6]; 24 h treatment) was 0.1 to 0.3 nM. The “effect on GSPT1 protein” value [7] was “no effect”, the cells undergoing apoptosis [8] was > 60% and the cells undergoing apoptosis [9] was > 60%. The apoptosis induction ([10]; RS4;11, 0.1 nM, 24 h treatment) was “minimal effect”, the cells undergoing apoptosis ([10]; RS4;11, 0.1 nM, 48 h treatment) was > 40% and the cells undergoing apoptosis ([10]; RS4;11, 0.3–10 nM, 24 h treatment) was 15–30%. For the same substance, the “levels of BRD2, BRD3 and BRD4 proteins in tumor tissue” value ([11]; single intravenous dose 1 and 5 mg/kg, 1 h and 6 h time-points) was “dramatically reduces”, the “c-Myc protein levels in tumor tissue” value ([11]; single intravenous dose 1 and 5 mg/kg, all time points (1, 6, 24 h)) was “reduces c-Myc protein levels dramatically” and the “cleavage of PARP in tumor tissue” value ([11]; single intravenous dose, 6 h and 24 h time-points) was “very effective in inducing cleavage of PARP”. For the same substance, the “reduction of BRD4 protein level at 24 h, 5 mg/kg compared with 1 mg/kg” value ([11]; single intravenous dose, 24 h time-point) was “more effective”, the “Concentration of QCA570 in Heart” value ([12]; 1 h, listed as QCA570, 5 mg/kg) was 373 ng/g and 288 ng/g and the “Concentration of QCA570 in Intestine” value ([12]; 1 h, listed as QCA570, 5 mg/kg) was 1283 ng/g and 1009 ng/g. The “Concentration of QCA570 in Kidney” value ([12]; 1 h, listed as QCA570, 5 mg/kg) was 649 ng/g and 675 ng/g, the “Concentration of QCA570 in Liver” value ([12]; 1 h, listed as QCA570, 5 mg/kg) was 1227 ng/g and 1720 ng/g and the “Concentration of QCA570 in Lung” value ([12]; 1 h, listed as QCA570, 5 mg/kg) was 1041 ng/g and 696 ng/g. For the same substance, the “Concentration of QCA570 in Tumor” value ([12]; 1 h, listed as QCA570, 5 mg/kg) was 642 ng/g and 405 ng/g, the “Concentration of QCA570 in plasma” value ([12]; 1 h, listed as QCA570, 5 mg/kg) was 1575 ng/mL and 2360 ng/mL and the “Concentration of QCA570 in Heart” value ([12]; 3 h, listed as QCA570, 5 mg/kg) was 17 ng/g and 22 ng/g. For the same substance, the “Concentration of QCA570 in Intestine” value ([12]; 3 h, listed as QCA570, 5 mg/kg) was 50 ng/g and 92 ng/g, the “Concentration of QCA570 in Kidney” value ([12]; 3 h, listed as QCA570, 5 mg/kg) was 40 ng/g and 49 ng/g and the “Concentration of QCA570 in Liver” value ([12]; 3 h, listed as QCA570, 5 mg/kg) was 57 ng/g and 209 ng/g. For the same substance, the “Concentration of QCA570 in Lung” value ([12]; 3 h, listed as QCA570, 5 mg/kg) was 35 ng/g and 89 ng/g, the “Concentration of QCA570 in Tumor” value ([12]; 3 h, listed as QCA570, 5 mg/kg) was 177 ng/g and 199 ng/g and the “Concentration of QCA570 in plasma” value ([12]; 3 h, listed as QCA570, 5 mg/kg) was 47 ng/mL and 263 ng/mL. For the same substance, the “Concentration of QCA570 in Heart” value ([12]; 6 h) was “BLQ”, the “Concentration of QCA570 in Intestine” value ([12]; 6 h) was “BLQ” and the “Concentration of QCA570 in Kidney” value ([12]; 6 h) was “BLQ”. For the same substance, the “Concentration of QCA570 in Liver” value ([12]; 6 h) was “BLQ”, the “Concentration of QCA570 in Lung” value ([12]; 6 h) was “BLQ” and the “Concentration of QCA570 in plasma” value ([12]; 6 h) was “BLQ”. The “Concentration of QCA570 in Tumor” value ([12]; 6 h, listed as QCA570, 5 mg/kg) was 87.9 ng/g and 68.7 ng/g, the “Concentration of QCA570 in Heart, mean” value ([12]; Mean (1h)) was 331 ng/g and the “Concentration of QCA570 in Intestine, mean” value ([12]; Mean (1h)) was 1146 ng/g. For the same substance, the “Concentration of QCA570 in Kidney, mean” value ([12]; Mean (1h)) was 662 ng/g, the “Concentration of QCA570 in Liver, mean” value ([12]; Mean (1h)) was 1473 ng/g and the “Concentration of QCA570 in Lung, mean” value ([12]; Mean (1h)) was 868 ng/g. The “Concentration of QCA570 in Tumor, mean” value ([12]; Mean (1h)) was 524 ng/g, the “Concentration of QCA570 in plasma, mean” value ([12]; Mean (1h)) was 1968 ng/mL and the “Concentration of QCA570 in Heart, mean” value ([12]; Mean (3h)) was 19 ng/g. For the same substance, the “Concentration of QCA570 in Intestine, mean” value ([12]; Mean (3h)) was 71 ng/g, the “Concentration of QCA570 in Kidney, mean” value ([12]; Mean (3h)) was 44 ng/g and the “Concentration of QCA570 in Liver, mean” value ([12]; Mean (3h)) was 133 ng/g. For the same substance, the “Concentration of QCA570 in Lung, mean” value ([12]; Mean (3h)) was 62 ng/g, the “Concentration of QCA570 in Tumor, mean” value ([12]; Mean (3h)) was 188 ng/g and the “Concentration of QCA570 in plasma, mean” value ([12]; Mean (3h)) was 155 ng/mL. The “Concentration of QCA570 in Heart, mean” value ([12]; Mean (6 h)) was “BLQ”, the “Concentration of QCA570 in Intestine, mean” value ([12]; Mean (6 h)) was “BLQ” and the “Concentration of QCA570 in Kidney, mean” value ([12]; Mean (6 h)) was “BLQ”. For the same substance, the “Concentration of QCA570 in Liver, mean” value ([12]; Mean (6 h)) was “BLQ”, the “Concentration of QCA570 in Lung, mean” value ([12]; Mean (6 h)) was “BLQ” and the “Concentration of QCA570 in Tumor, mean” value ([12]; Mean (6 h)) was 78 ng/g. The “Concentration of QCA570 in plasma, mean” value ([12]; Mean (6 h)) was “BLQ”, the tumor response ([13]; RS4;11 xenograft, 5 mg/kg weekly) was “complete tumor growth inhibition but not tumor regression” and the tumor response ([13]; RS4;11 xenograft, 1, 2.5 and 5 mg/kg, 3 times per week for 3 weeks) was “complete and long-lasting tumor regression”. For the same substance, the animal weight loss [13, 16] was “minimal animal weight loss”, the signs of toxicity [13, 16] was “no other signs of toxicity” and the “degradation of BRD2, BRD3 and BRD4 proteins” value ([14]; 0.5 nM) was “complete degradation”. The “concentration effective in reducing BRD2 protein level” value [14] was 30 to 100 pM, the “lowest concentration very effective in reducing BRD3 and BRD4 protein levels” value [14] was ≤ 10 pM and the tumor response ([15]; 1 mg/kg) was “complete tumor regression”. For the same substance, the tumor response ([15]; 5 mg/kg) was “complete and long-lasting tumor regression”.
